Test results published in ChEMBL document CHEMBL1800008, “Design, synthesis and reactivity of C2-symmetric azobenzene-based amino acid-bis(propargyl sulfones)” (Bioorg Med Chem Lett, 2010).
Active and inactive are the calls of the source. The calls are words filed in the database; no cut-off is given here.

Columns and labels:
Type in all cases: nucleic-acid assay
Nucleic Acid [1] = experiment: Induction of Escherichia coli supercoiled pBR322 DNA cleavage at 0.02 mM after 48 hrs by gel electrophoresis analysis
Nucleic Acid [2] = experiment: Induction of Escherichia coli supercoiled pBR322 DNA cleavage at 0.02 mM after 48 hrs by densitometric analysis
Nucleic Acid [3] = experiment: Binding affinity to calf thymus DNA by absorption titration analysis; conditions: Bos taurus

| Activity (Nucleic Acid [1]) | Activity (Nucleic Acid [2]) | K (Nucleic Acid [3]) | Structure (SMILES) |
| --- | --- | --- | --- |
| 20% | Active | 11 ×10⁴ /M | CC(C)[C@H](NC(=O)COc1ccccc1/N=N/c1ccccc1OCC(=O)N[C@H](C(=O)OCC#CCS(=O)(=O)c1ccccc1)C(C)C)C(=O)OCC#CCS(=O)(=O)c1ccccc1 |
| 10% | Active | 9 ×10⁴ /M | O=C(COc1ccccc1/N=N/c1ccccc1OCC(=O)N[C@@H](Cc1ccccc1)C(=O)OCC#CCS(=O)(=O)c1ccccc1)N[C@@H](Cc1ccccc1)C(=O)OCC#CCS(=O)(=O)c1ccccc1 |
| 25% |  |  | O=S(=O)(CC#CCOc1ccccc1/N=N/c1ccccc1OCC#CCS(=O)(=O)c1ccccc1)c1ccccc1 |
